From patent US20240252488A1 (KOREA RESEARCH INSTITUTE OF CHEMICAL TECHNOLOGY, priority 2020, published 2024)

Legend:
[1] = test system: FADD−/− Jurkat cells; test: Necroptosis inhibition assay, TNF-α-induced necroptosis (CellTiter-Glo 2.0); assay type: cell-based, human; conditions: TNF-α 15 ng/mL; for Necroptosis inhibition assay (Rescue %) 1 μM: compound 1 μM; for Necroptosis inhibition assay (Rescue %) 10 μM: compound 10 μM
How it was run: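 Cells at 5.0×10^5 cells/mL were pretreated with compound (final 0.1, 1 and 10 μM) for 30 minutes at room temperature, then given TNF-α at 15 ng/mL final. After 20 to 24 hours at 37° C, 5% CO2, viability was read as ATP luminescence to calculate cytotoxicity and necroptosis inhibition rate.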

[2] = biological target: T1, MLKL (Homo sapiens, UniProt Q8NB16); test: MLKL degradation assay in HepG2 cell line (western blot); assay type: cell-based; parameters: endogenous in cells; host or cells: HepG2 or HaCaT; conditions: cell line not given; for Degradation assay (Degradation %) 1 μM: compound 1 μM; for Degradation assay (Degradation %) 10 μM: compound 10 μM
T1 sequence (Q8NB16 1-471): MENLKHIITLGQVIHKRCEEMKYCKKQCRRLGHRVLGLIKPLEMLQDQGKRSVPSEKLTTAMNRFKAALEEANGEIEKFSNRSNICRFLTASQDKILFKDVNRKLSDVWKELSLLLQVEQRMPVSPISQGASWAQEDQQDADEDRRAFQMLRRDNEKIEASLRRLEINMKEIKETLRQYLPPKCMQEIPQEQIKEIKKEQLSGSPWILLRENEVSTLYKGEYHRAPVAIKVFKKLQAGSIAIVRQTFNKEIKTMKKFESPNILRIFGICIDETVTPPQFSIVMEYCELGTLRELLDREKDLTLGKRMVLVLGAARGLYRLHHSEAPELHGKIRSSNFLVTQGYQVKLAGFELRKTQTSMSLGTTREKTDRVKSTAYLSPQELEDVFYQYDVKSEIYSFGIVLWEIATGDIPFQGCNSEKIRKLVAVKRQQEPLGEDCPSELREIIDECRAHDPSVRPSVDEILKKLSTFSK
How it was run: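 HepG2 cells were exposed to compound at a final 1 or 10 μM for 20-24 hours at 37 °C, 5% CO2. RIPA lysates were normalized by BCA assay, 10-15 μg protein resolved by SDS-PAGE, and MLKL levels detected by western blot with chemiluminescence.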

[3] = biological target: T1, MLKL; test: Measurement of binding affinity with MLKL receptor (competitive binding assay, Kd); parameters: made in house; host or cells: HEK 293 cell line (T7 phage in E. coli BL21-derived host is also described)
How it was run: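 HEK 293-expressed, DNA-tagged MLKL; ligand beads blocked with biotin and SeaBlock/1% BSA/0.05% Tween 20/1 mM DTT buffer. Cpd from 111× DMSO stock, 0.9% DMSO final. Eluted kinase by qPCR → Kd.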

| SMILES | Necroptosis inhibition assay (Rescue %) 1 μM ([1]; FADD−/− Jurkat cells) [%] | Necroptosis inhibition assay (Rescue %) 10 μM ([1]; FADD−/− Jurkat cells) [%] | Degradation assay (Degradation %) 1 μM [2] [%] | Degradation assay (Degradation %) 10 μM [2] [%] | Kd [3] [nM] | Necroptosis inhibition assay (Rescue %) 1 μM [1] [%] | Necroptosis inhibition assay (Rescue %) 10 μM [1] [%] |
| --- | --- | --- | --- | --- | --- | --- | --- |
| Nc1ncc(-c2cnn(C3CCN(CC4CCN(CC5CCN(C(=O)c6ccc(C(=O)NC7CCC(=O)NC7=O)cc6)CC5)CC4)CC3)c2)nc1C(=O)O[C@@H](C(=O)Nc1ccc(F)cc1)c1ccccc1 (stereo partly drawn) [TDH-539, (R)-2-((4-fluorophenyl)amino)-2-oxo-1-phenylethyl 3-amino-6-(1-(1-((1-((1-(4-((2,6-dioxopiperidin-3-yl)carbamoyl)benzoyl)piperidin-4-yl)methyl)piperidin-4-yl)methyl)piperidin-4-yl)-1H-pyrazol-4-yl)pyrazine-2-carboxylate] | 46.99 | 30.33 | 70.67 | 89.04 | 0.68 |  |  |
| Nc1ncc(-c2cnn(C3CCN(CCOCCOCCOCCNC(=O)C4CN(c5ccc6c(c5)C(=O)N(C5CCC(=O)NC5=O)C6=O)C4)CC3)c2)nc1C(=O)O[C@@H](C(=O)Nc1ccc(F)cc1)c1ccccc1 (stereo partly drawn) [TDH-142, (R)-2-((4-fluorophenyl)amino)-2-oxo-1-phenylethyl 3-amino-6-(1-(1-(1-(1-(2-(2,6-dioxopiperidin-3-yl)-1,3-dioxoisoindolin-5-yl)azetidin-3-yl)-1-oxo-5,8,11-trioxa-2-azatridecan-13-yl)piperidin-4-yl)-1H-pyrazol-4-yl)pyrazine-2-carboxylate] |  |  | 19.42 | 53.09 | 4.4 | 12.69 | 50.51 |
| Nc1ncc(-c2cnn(C3CCN(CCCN4CCN(c5cccc6c5C(=O)N(C5CCC(=O)NC5=O)C6=O)CC4)CC3)c2)nc1C(=O)OC(C(=O)Nc1ccc(F)cc1)c1ccccc1 (stereo not shown) [TDH-245, 2-((4-fluorophenyl)amino)-2-oxo-1-phenylethyl 3-amino-6-(1-(1-(3-(4-(2-(2,6-dioxopiperidin-3-yl)-1,3-dioxoisoindolin-4-yl)piperazin-1-yl)propyl)piperidin-4-yl)-1H-pyrazol-4-yl)pyrazine-2-carboxylate] |  |  | 67.67 | 62.75 | 3.6 | 65.75 | 14.51 |
| Nc1ncc(-c2cnn(C3CCN(CCCN4CCN(C(=O)C5CCN(c6ccc7c(c6)C(=O)N(C6CCC(=O)NC6=O)C7=O)CC5)CC4)CC3)c2)nc1C(=O)OC(C(=O)Nc1ccc(F)cc1)c1ccccc1 (stereo not shown) [TDH-240, 2-((4-fluorophenyl)amino)-2-oxo-1-phenylethyl 3-amino-6-(1-(1-(3-(4-(1-(2-(2,6-dioxopiperidin-3-yl)-1,3-dioxoisoindolin-5-yl)piperidine-4-carbonyl)piperazin-1-yl)propyl)piperidin-4-yl)-1H-pyrazol-4-yl)pyrazine-2-carboxylate] |  |  | 88.47 |  | 4.2 | 43.23 | 14.03 |
| Nc1ncc(-c2cnn(C3CCN(CC4CCN(C(=O)COc5cccc6c5C(=O)N(C5CCC(=O)NC5=O)C6=O)CC4)CC3)c2)nc1C(=O)N[C@@H](C(=O)Nc1ccc(F)cc1)c1ccccc1 (stereo partly drawn) [TDH-186, 3-amino-6-(1-(1-((1-(2-((2-(2,6-dioxopiperidin-3-yl)-1,3-dioxoisoindolin-4-yl)oxy)acetyl)piperidin-4-yl)methyl)piperidin-4-yl)-1H-pyrazol-4-yl)-N-((R)-2-((4-fluorophenyl)amino)-2-oxo-1-phenylethyl)pyrazine-2-carboxamide] |  |  | 14.8 | 21.54 | 75 | 35.73 | 35.74 |
| Nc1ncc(-c2cnn(C3CCN(CC4CN(C(=O)C5CCN(c6ccc7c(c6)C(=O)N(C6CCC(=O)NC6=O)C7=O)CC5)CCO4)CC3)c2)nc1C(=O)OC(C(=O)Nc1ccc(F)cc1)c1ccccc1 (stereo not shown) [TDH-305, 2-((4-fluorophenyl)amino)-2-oxo-1-phenylethyl 3-amino-6-(1-(1-((4-(1-(2-(2,6-dioxopiperidin-3-yl)-1,3-dioxoisoindolin-5-yl)piperidine-4-carbonyl)morpholin-2-yl)methyl)piperidin-4-yl)-1H-pyrazol-4-yl)pyrazine-2-carboxylate] |  |  | 72.47 | 50.39 | 2.8 | 66.84 | 52.42 |
| Nc1ncc(-c2cnn(C3CCN(CCCCCCCCCCNC(=O)COc4ccc5nnn(C6CCC(=O)NC6=O)c(=O)c5c4)CC3)c2)nc1C(=O)O[C@@H](C(=O)Nc1ccc(F)cc1)c1ccccc1 (stereo partly drawn) [TDH-176, (R)-2-((4-fluorophenyl)amino)-2-oxo-1-phenylethyl 3-amino-6-(1-(1-(10-(2-((3-(2,6-dioxopiperidin-3-yl)-4-oxo-3,4-dihydrobenzo[d][1,2,3]triazin-6-yl)oxy)acetamido)decyl)piperidin-4-yl)-1H-pyrazol-4-yl)pyrazine-2-carboxylate] |  |  | 34.07 | 23.76 | 22 | 44.28 | 35.42 |
| Nc1ncc(-c2cnn(C3CCN(CCOCCOCCOCCNC(=O)C4CCN(c5ccc6c(c5)C(=O)N(C5CCC(=O)NC5=O)C6=O)CC4)CC3)c2)nc1C(=O)O[C@@H](C(=O)Nc1ccc(F)cc1)c1ccccc1 (stereo partly drawn) [TDH-140, (R)-2-((4-fluorophenyl)amino)-2-oxo-1-phenylethyl 3-amino-6-(1-(1-(1-(1-(2-(2,6-dioxopiperidin-3-yl)-1,3-dioxoisoindolin-5-yl)piperidin-4-yl)-1-oxo-5,8,11-trioxa-2-azatridecan-13-yl)piperidin-4-yl)-1H-pyrazol-4-yl)pyrazine-2-carboxylate] |  |  | 41.81 | 83.53 | 9.2 | 21.32 | 81.41 |
| Nc1ncc(-c2cnn(C3CCN(CC4CN(C(=O)CNc5cccc6c5C(=O)N(C5CCC(=O)NC5=O)C6=O)CCO4)CC3)c2)nc1C(=O)OC(C(=O)Nc1ccc(F)cc1)c1ccccc1 (stereo not shown) [TDH-306, 2-((4-fluorophenyl)amino)-2-oxo-1-phenylethyl 3-amino-6-(1-(1-((4-((2-(2,6-dioxopiperidin-3-yl)-1,3-dioxoisoindolin-4-yl)glycyl)morpholin-2-yl)methyl)piperidin-4-yl)-1H-pyrazol-4-yl)pyrazine-2-carboxylate] |  |  | 62.87 | 45.31 | 5.4 | 34.35 | 43.09 |
| COc1ccc(C(=O)N2CCC(CN3CCC(n4cc(-c5cnc(N)c(C(=O)O[C@@H](C(=O)Nc6ccc(F)cc6)c6ccccc6)n5)cn4)CC3)CC2)cc1N1CCC(=O)NC1=O [TDH-445, (R)-2-((4-fluorophenyl)amino)-2-oxo-1-phenylethyl 3-amino-6-(1-(1-((1-(3-(2,4-dioxotetrahydropyrimidin-1(2H)-yl)-4-methoxybenzoyl)piperidin-4-yl)methyl)piperidin-4-yl)-1H-pyrazol-4-yl)pyrazine-2-carboxylate] | 12.07 | 19.83 | 20.29 | 27.38 | 0.6 |  |  |
